In patent publication US20240284910A1, “HERBICIDAL COMPOSITIONS” (SYNGENTA CROP PROTECTION AG, priority 2021, published 2024):

Assays:
Assay type in all cases: in vivo
Settings in all cases: sprayed, evaluated after 13 days
[1] = test system: Stellaria media (STEME); assay: Post-emergence glasshouse phytotoxicity test, STEME
Protocol: (§1) Seeds of Chenopodium album (CHEAL), Ipomoea hederacea (IPOHE), Amaranthus retroflexus (AMARE) and Abutilon threophrasti (ABUTH) and Stellaria media (STEME) were sown in standard sterilised soil in pots. After cultivation for 8 days under controlled conditions in a glasshouse (at 24/19° C., day/night; 16 hours light; no humidity control), the plants were sprayed at 500 I/Ha with an aqueous spray solution derived from the formulation of the technical active ingredients in a small amount of acetone and a solvent and emulsifier mixture referred to as IF50 (11.12% Emulsogen EL360 TM+44.44% N-methylpyrrolidone+44.44% Dowanol DPM glycol ether), to create a 50 g/l solution which was then diluted using 0.2% Genapol XO80 (CAS Number: 9043-30-5) as diluent to give the desired final dose of test compound. Where active ingredients were applied as mixtures, aqueous spray solutions were prepared as above, containing both active ingredients. The test plants were then grown under controlled conditions in a glasshouse (at 24/18° C., day/night; 15 hours light; 50% humidity) and watered twice daily. After 13 days, the test was evaluated visually for percentage phytotoxicity to the plants (where 100=total damage to plant; 0=no damage to plant) when compared to control untreated plants. Two to four replicates were applied for each treatment in a randomised block test design.
(§2) 22., E=X+Y−(X*Y/100), where • X=average percent phytotoxicity of herbicide A when applied at a certain rate • Y=average percent phytotoxicity using herbicide B when applied at a certain rate • E=the expected effect of the mixture of herbicides A and B as calculated from the Colby formula.

[2] = test system: Abutilon threophrasti (ABUTH); assay: Post-emergence glasshouse phytotoxicity test, ABUTH
Protocol: as §1, with “Where active ingredients were applied as mixtures, aqueous spray solutions were prepared as above, containing both active ingredients. The test plants were then grown under controlled conditions in a glasshouse (at 24/18° C., day/night; 15 hours light; 50% humidity) and watered twice daily.” left out, “Two to four replicates were applied for each treatment in a randomised block test design.” left out
as §2

[3] = test system: Ipomoea hederacea (IPOHE); assay: Post-emergence glasshouse phytotoxicity test, IPOHE
Protocol: as §1, §2

[4] = test system: Chenopodium album (CHEAL); assay: Post-emergence glasshouse phytotoxicity test, CHEAL
Protocol: as §1, §2

[5] = test system: Amaranthus retroflexus (AMARE); assay: Post-emergence glasshouse phytotoxicity test, AMARE
Protocol: as §1, §2

Question: `CN1C[C@H](c2cccc(C(F)(F)F)c2)[C@@H](C(=O)Nc2ccccc2F)C1=O` [I-A] was tested. Which “Observed (O) percentage phytotoxicity” value ([1]; rate 6.25 g/ha) did it give?
Answer: 33%

Question: What about the “Observed (O) percentage phytotoxicity” value ([1]; rate 12.5 g/ha, 100=total damage, 0=no damage) of the same molecule?
Answer: 58%

Question: And the “Observed (O) percentage phytotoxicity” value ([2]; rate 12.5 g/ha)?
Answer: 10%

Question: What about the “Observed (O) percentage phytotoxicity” value ([3]; rate 6.25 g/ha) of the same molecule?
Answer: 25%

Question: What about the “Observed (O) percentage phytotoxicity” value ([3]; rate 12.5 g/ha) of the same molecule?
Answer: 38%

Question: What about the “Observed (O) percentage phytotoxicity” value ([4]; rate 6.25 g/ha) of the same molecule?
Answer: 0%

Question: What about the “Observed (O) percentage phytotoxicity” value ([4]; rate 12.5 g/ha) of the same molecule?
Answer: 28%

Question: What about the “Observed (O) percentage phytotoxicity” value ([5]; rate 6.25 g/ha) of the same molecule?
Answer: 0%

Question: And the “Observed (O) percentage phytotoxicity” value ([5]; rate 25 g/ha)?
Answer: 8%

Question: With `Cc1nnc(NC(=O)c2ccc(C(F)(F)F)n3c(CS(=O)(=O)C(C)C)nnc23)o1` [II] as the molecule, how does the “Observed (O) percentage phytotoxicity” value ([1]; rate 0.16 g/ha) read?
Answer: 13%

Question: What about the “Observed (O) percentage phytotoxicity” value ([1]; rate 0.31 g/ha) of the same molecule?
Answer: 6%

Question: And the “Observed (O) percentage phytotoxicity” value ([2]; rate 0.31 g/ha)?
Answer: 34%

Question: What about the “Observed (O) percentage phytotoxicity” value ([3]; rate 0.16 g/ha) of the same molecule?
Answer: 4%

Question: And the “Observed (O) percentage phytotoxicity” value ([4]; rate 0.31 g/ha)?
Answer: 24%

Question: What about the “Observed (O) percentage phytotoxicity” value ([5]; rate 0.31 g/ha) of the same molecule?
Answer: 5%
